{"source": "paper PMC8601599", "about": "“Computational redesign of a fluorogen activating protein with Rosetta” (PLoS Computational Biology, 2021)", "assay_in_all_cases": "fluorescence titration", "format_in_all_cases": "binding", "key": {"[1]": {"target": "T1, DiB-RM-split (Escherichia coli, UniProt P0A901, A36C/F53A/N76F/S89Y/E90V/S107A/L141N)", "T1 construct": "gene blc; two co-expressed self-assembling fragments of DiB-RM split between residues 109 and 110; E. coli XJb(DE3), TALON then size exclusion", "T1 sequence (P0A901 20-109 A36C/F53A/N76F/S89Y/E90V/S107A)": "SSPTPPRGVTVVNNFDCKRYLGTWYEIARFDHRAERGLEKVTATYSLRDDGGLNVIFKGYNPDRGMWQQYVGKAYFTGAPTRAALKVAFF", "T1 sequence (P0A901 110-177 L141N)": "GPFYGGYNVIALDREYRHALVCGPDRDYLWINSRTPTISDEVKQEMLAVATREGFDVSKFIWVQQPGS", "details": "apparent Kd, 1 μM chromophore, varied protein, excitation 490 nm", "text": "fluorescence titration on DiB-RM-split"}, "[2]": {"target": "T2, DiB1; DiB-RM (lipocalin Blc mutants) (Escherichia coli, UniProt P0A901, A36C/L141N)", "T2 construct": "E. coli XJb(DE3) expression from pBAD, TALON then size exclusion; monomer in solution", "T2 sequence (P0A901 20-177 A36C/L141N)": "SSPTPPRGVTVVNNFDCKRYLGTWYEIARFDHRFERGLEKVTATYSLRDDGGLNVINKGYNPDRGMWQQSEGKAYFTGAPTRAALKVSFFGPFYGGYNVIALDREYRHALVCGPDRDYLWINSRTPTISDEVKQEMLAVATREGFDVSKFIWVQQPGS", "details": "apparent Kd, 1 μM chromophore, varied protein, excitation 490 nm", "text": "(§1) fluorescence titration on DiB1; DiB-RM (lipocalin Blc mutants)"}, "[3]": {"target": "T3, DiB1; DiB-RM (lipocalin Blc mutants) (Escherichia coli, UniProt P0A901, A36C/F53A/S89Y/E90V/S107A/L141N)", "T3 construct": "E. coli XJb(DE3) expression from pBAD, TALON then size exclusion; monomer in solution", "T3 sequence (P0A901 20-177 A36C/F53A/S89Y/E90V/S107A/L141N)": "T2 sequence (P0A901 20-177 A36C/L141N) with F34A, S70Y, E71V, S88A", "details": "DiB-RM-F76N; apparent Kd; 1 μM chromophore, varied protein; excitation 490 nm", "text": "as §1"}, "[4]": {"target": "T4, DiB1; DiB-RM (lipocalin Blc mutants) (Escherichia coli, UniProt P0A901, A36C/F53A/N76F/S89Y/S107A/L141N)", "T4 construct": "E. coli XJb(DE3) expression from pBAD, TALON then size exclusion; monomer in solution", "T4 sequence (P0A901 20-177 A36C/F53A/N76F/S89Y/S107A/L141N)": "T2 sequence (P0A901 20-177 A36C/L141N) with F34A, N57F, S70Y, S88A", "details": "DiB-RM-V90E; apparent Kd; 1 μM chromophore, varied protein; excitation 490 nm", "text": "as §1"}, "[5]": {"target": "T5, DiB1; DiB-RM (lipocalin Blc mutants) (Escherichia coli, UniProt P0A901, A36C/F53A/N76F/S89Y/E90V/L141N)", "T5 construct": "E. coli XJb(DE3) expression from pBAD, TALON then size exclusion; monomer in solution", "T5 sequence (P0A901 20-177 A36C/F53A/N76F/S89Y/E90V/L141N)": "T2 sequence (P0A901 20-177 A36C/L141N) with F34A, N57F, S70Y, E71V", "details": "DiB-RM-A107S; apparent Kd; 1 μM chromophore, varied protein; excitation 490 nm", "text": "as §1"}, "[6]": {"target": "T6, DiB1; DiB-RM (lipocalin Blc mutants) (Escherichia coli, UniProt P0A901, A36C/F53A/N76F/E90V/S107A/L141N)", "T6 construct": "E. coli XJb(DE3) expression from pBAD, TALON then size exclusion; monomer in solution", "T6 sequence (P0A901 20-177 A36C/F53A/N76F/E90V/S107A/L141N)": "T2 sequence (P0A901 20-177 A36C/L141N) with F34A, N57F, E71V, S88A", "details": "DiB-RM-Y89S; apparent Kd; 1 μM chromophore, varied protein; excitation 490 nm", "text": "as §1"}, "[7]": {"target": "T7, DiB1; DiB-RM (lipocalin Blc mutants) (Escherichia coli, UniProt P0A901, A36C/F53A/N76F/S89Y/E90V/S107A/L141N)", "T7 construct": "E. coli XJb(DE3) expression from pBAD, TALON then size exclusion; monomer in solution", "T7 sequence (P0A901 20-177 A36C/F53A/N76F/S89Y/E90V/S107A/L141N)": "T2 sequence (P0A901 20-177 A36C/L141N) with F34A, N57F, S70Y, E71V, S88A", "details": "apparent Kd, 1 μM chromophore, varied protein, excitation 490 nm", "text": "as §1"}, "[8]": {"target": "T8, DiB1; DiB-RM (lipocalin Blc mutants) (Escherichia coli, UniProt P0A901, A36C/N76F/S89Y/E90V/S107A/L141N)", "T8 construct": "E. coli XJb(DE3) expression from pBAD, TALON then size exclusion; monomer in solution", "T8 sequence (P0A901 20-177 A36C/N76F/S89Y/E90V/S107A/L141N)": "T2 sequence (P0A901 20-177 A36C/L141N) with N57F, S70Y, E71V, S88A", "details": "DiB-RM-A53F; apparent Kd; 1 μM chromophore, varied protein; excitation 490 nm", "text": "as §1"}}, "note": "Positions count from the first letter of the chain named.", "data": [{"compound": "CCN(CC)c1ccc2c(c1)[B-](F)(F)[N+]1=C(C)N(C)C(=O)C1=C2", "note": "[M739]", "values": [{"measurement": "Kd", "setting": "[1]", "result": "2800 ± 400", "unit": "nM"}, {"measurement": "Kd", "setting": "[2]", "result": "40 ± 30", "unit": "nM"}, {"measurement": "Kd", "setting": "[3]", "result": "70 ± 10", "unit": "nM"}, {"measurement": "Kd", "setting": "[4]", "result": "380 ± 50", "unit": "nM"}, {"measurement": "Kd", "setting": "[5]", "result": "290 ± 40", "unit": "nM"}, {"measurement": "Kd", "setting": "[6]", "result": "660 ± 80", "unit": "nM"}, {"measurement": "Kd", "setting": "[7]", "result": "170 ± 40", "unit": "nM"}, {"measurement": "Kd", "setting": "[8]", "result": "160 ± 40", "unit": "nM"}]}]}
